# Data taken from patent publication US6114537A, “Process for scavenging thiols” (Apotex Inc., priority 1997, dated 2000).
# What was measured:
# Papain = biological target: T1, Papain (Carica papaya, UniProt P00784); test: Inhibition of Papain, enzyme assay and kinetic measurements; type: biochemical; settings: for kinact/KI: approximates kon, read-out: kabs /[inh] (papain); for inhibition at 200 µM: 200 μM [inhibitor] (printed 200 μm); for inhibition at 1 µM: 1 μM [inhibitor]
# T1 sequence (P00784 134-345): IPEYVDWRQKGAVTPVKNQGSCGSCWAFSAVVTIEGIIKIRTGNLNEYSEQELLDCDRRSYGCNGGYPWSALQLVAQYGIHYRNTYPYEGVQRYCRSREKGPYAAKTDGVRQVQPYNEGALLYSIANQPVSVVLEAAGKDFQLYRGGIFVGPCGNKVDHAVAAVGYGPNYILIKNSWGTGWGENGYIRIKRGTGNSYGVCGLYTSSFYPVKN
# Source text: (§1) Inhibition of Cathepsin B, Cathepsin L and Papain by 1,2,4-thiadiazoles and 1,2,4-thiadiazole[4,5-a]benzimidazole derivatives: Enzyme Assays and Kinetic Measurements
# (§2) Conditions for the above experiments can be found in the following references: Menard R. et al., Biochemistry 1990, 29, 6706-6713; Fox T. et al., Biochemistry 1992, 31, 12571-12576; Cannona E. et al., Biochemistry 1996, 35, 8149-8157. A typical experiment consisted of choosing an inhibitor concentration such that maximum inhibition could be achieved in less than two hours, monitoring the complete progress curve (i.e. fluorescence vs time), and analyzing the data. The analysis yield two parameters: the % inhibition once steady state was re ached, and a rate constant which represents the rate at which this steady state is reached. Typically, the enzyme activity decreases with time until the maximum level of inhibition is reached (i.e. steady state) where the enzyme activity remains constant. Since significant levels of activity could still be detected at steady state (i.e. inhibition is not complete), the data was fitted to equation (1), which is normally used for slow-binding reversible inhibitors. [formula]
# (§3) % inhibition=(1-v1 /vo).100 (2)
# (§4) In this equation, [P] represents the concentration of product (obtained from the flourescene readings), kabs is the first order rate constant to reach steady state, vo is the initial rate which corresponds to the rate in the absence of the inhibitor, and vi is the rate of the inhibited enzyme at steady state. The % inhibition was obtained by using equation (2), where the rate measured in the absence of the inhibitor was used for vo. An example of a simple mechanism for such a process is given below: [formula] For this mechanism, the value of kabs determined experimentally would correspond to:
# (§5) The value of kabs varies with inhibitor concentration. Often koff is much slower than kon [inh] and kabs /[inh] can be used to approximate kon. This approach is used in this study and the results are shown in below: […]
# Cathepsin B = Cathepsin B (Rattus norvegicus, UniProt P00787); test: Inhibition of Cathepsin B, enzyme assay and kinetic measurements; type: biochemical; settings: for kinact/KI: approximates kon, read-out: kabs /[inh] (cathepsin B); for inhibition at 200 µM: 200 μM [inhibitor]
# Source text: as §1, §2, §3, §4, §5
# Cathepsin L = Cathepsin L (Homo sapiens, UniProt P07711); test: Inhibition of Cathepsin L, enzyme assay and kinetic measurements; type: biochemical; settings: for kinact/KI: approximates kon, read-out: kabs /[inh] (cathepsin L); for inhibition at 5 µM: 5 μM [inhibitor]
# Source text: as §1, §2, §3, §4, §5
# [1] = Reaction with benzyl mercaptan; type: physicochemical; settings: organic solvent such as methanol
# Source text: The chemical reactivity of monocyclic 1,2,4-thiadiazole as thiol trapping agent depends on the substituent at the 3 and 5 position of the ring system.
# hog H^+ /K^+ ATPase = biological target: T2, hog H^+ /K^+ ATPase (Sus scrofa, UniProt P19156); test: Gastric ATPase enzyme inhibition assay; type: biochemical; settings: hog gastric vesicles, K+ stimulated ATP hydrolysis
# T2 construct: Potassium stimulated ATP hydrolysis using hog gastric (GI) vesicles; from tissue; host or cells: hog gastric (GI) vesicles
# Description: Gastric ATPase enzyme inhibition assay
# The enzyme used is the hog H^+ /K^+ ATPase (Sachs, et al. J. Biol. Chem. 251:7690-7698, 1976). A modified procedure reported by Yoda A. and Hokin, L.E., Biochem. Res. Commun., 1970, 800-884 is used. Potassium stimulated ATP hydrolysis using hog gastric (GI) vesicles, a preparation enriched in H^+ /K^+ ATPase, is measured.
# The difference between activity in the presence of Mg^++ and presence of Mg^++ and K^+ 0 is taken as enzyme activity. Nigericin, a K^+ ionophore, is also present in the (+)K^+ incubation mixture to provide access of K^+ to the vesicle interior. Hydrolysis activity is measured by quantitative analysis of a phosphomolybdate complex. […] The optical density of many drugs used for the inhibition of H^+ /K^+ ATPase interfere in this wavelength. Therefore, a modification of the as say was used wherein the phosphomolybdate complex was reduced with Fiske and Subbarow reducer (1-amino-2-naphthol-4-[…] plus sodium sulfite). This shifts the optical density from 3 20 nm for the oxidized phosphomolybdate complex to 600-700 nm. This modification has the added advantage of providing a means of automated assay when multiple samples being tested. In this modification, the optical density of the assay mixtures was read at 700 nm.
# Basal Mg^++ levels are measured in […], 2 mM Na2 ATP, 40 mM Pipes-tris, pH 6.10. 20 mM KCl and 10 μg/ml nigericin is added to determine the extent of stimulation by K^+. Test compounds or vehicle are then added. Enzyme (10 μg/ml) is then added to initiate the reaction. The final volume is 200 μl. The protocol for these assays is shown below.
# Zero blanks (water controls) and phosphate standards (200 μl) are added appropriate for assays used: […], 0.050, 0.075, 0.1 . . . 0.5 mM standards. The order of the addition of reagents generally follows as described above. However, it may be more preferable to add either enzyme before ATP if it is important to provide time for pre-cubation with test compounds. Time additions of the last reagent are used to provide a uniform assay time.
# The reaction is run for 30 min. to 1 hour. The re action is stopped by addition of 50 μl of a solution prepared by adding 4 volumes of 2.5 M sulfric acid plus one volume of 1.25% (w/v) Fiske and Subbarow reagent. Colour is developed at room temperature for ten minutes and optical density at 700 nm is determined. In the event that a white precipitate forms, the clear supernatants (after mixing and setting) can be used for the determination of enzyme activity.
# [2] = Acid stability in 6 molar hydrochloric acid; type: physicochemical; settings: room temperature
# Description: Acid stability of 7-methoxy-3-[(4-methoxy-3,5-dimethyl-2-pyridyl)oxomethyl]-1,2,4-thiadiazolo[4,5-a]benzimidazole.
# To examine acid stability of the captioned compound, the compound was dissolved in a minimum volume of methanol and the resulting solution was added to a 6 molar solution of hydrochloric acid.
# [3] = steady state, 200 μM [inhibitor] (printed 200 μm)
# [4] = steady state, 50 μM [inhibitor]
# T2 sequence (P19156 2-1034 limits assumed): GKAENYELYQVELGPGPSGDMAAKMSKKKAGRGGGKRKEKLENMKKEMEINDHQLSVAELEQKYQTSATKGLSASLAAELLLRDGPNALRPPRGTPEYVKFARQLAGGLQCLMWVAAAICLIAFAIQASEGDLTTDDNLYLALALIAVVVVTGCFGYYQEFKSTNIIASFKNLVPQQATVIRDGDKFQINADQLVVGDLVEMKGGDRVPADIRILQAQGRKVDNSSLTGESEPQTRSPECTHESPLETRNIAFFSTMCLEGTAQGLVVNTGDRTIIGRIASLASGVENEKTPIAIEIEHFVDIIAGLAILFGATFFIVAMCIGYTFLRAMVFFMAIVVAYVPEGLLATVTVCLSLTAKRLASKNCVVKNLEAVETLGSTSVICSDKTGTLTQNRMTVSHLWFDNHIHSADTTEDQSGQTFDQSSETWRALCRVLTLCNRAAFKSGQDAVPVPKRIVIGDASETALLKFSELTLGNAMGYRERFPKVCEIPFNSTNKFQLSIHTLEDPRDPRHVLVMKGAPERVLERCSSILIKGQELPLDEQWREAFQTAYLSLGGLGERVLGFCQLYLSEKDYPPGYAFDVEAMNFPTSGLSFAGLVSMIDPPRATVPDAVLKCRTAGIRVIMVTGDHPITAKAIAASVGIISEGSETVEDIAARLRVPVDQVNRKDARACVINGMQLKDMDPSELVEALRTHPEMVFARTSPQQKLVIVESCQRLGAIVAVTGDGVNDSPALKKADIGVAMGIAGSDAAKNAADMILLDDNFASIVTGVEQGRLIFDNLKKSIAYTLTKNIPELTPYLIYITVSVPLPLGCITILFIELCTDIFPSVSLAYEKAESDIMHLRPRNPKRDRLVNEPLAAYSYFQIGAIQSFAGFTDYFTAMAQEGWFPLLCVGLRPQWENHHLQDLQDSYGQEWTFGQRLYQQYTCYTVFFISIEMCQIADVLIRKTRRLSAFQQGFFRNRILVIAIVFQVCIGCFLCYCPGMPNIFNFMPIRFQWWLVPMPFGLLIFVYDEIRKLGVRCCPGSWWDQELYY
# T2 sequence (P18434 whole entry partner): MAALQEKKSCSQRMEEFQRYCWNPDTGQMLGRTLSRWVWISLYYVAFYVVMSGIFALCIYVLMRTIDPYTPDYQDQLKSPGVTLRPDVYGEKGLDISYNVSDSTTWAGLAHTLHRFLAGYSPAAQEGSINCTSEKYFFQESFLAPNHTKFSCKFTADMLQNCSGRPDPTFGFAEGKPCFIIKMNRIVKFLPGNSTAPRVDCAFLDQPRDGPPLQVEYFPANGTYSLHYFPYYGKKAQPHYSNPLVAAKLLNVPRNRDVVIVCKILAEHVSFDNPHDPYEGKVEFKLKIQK
# Chain of Cathepsin B (P00787 80-339): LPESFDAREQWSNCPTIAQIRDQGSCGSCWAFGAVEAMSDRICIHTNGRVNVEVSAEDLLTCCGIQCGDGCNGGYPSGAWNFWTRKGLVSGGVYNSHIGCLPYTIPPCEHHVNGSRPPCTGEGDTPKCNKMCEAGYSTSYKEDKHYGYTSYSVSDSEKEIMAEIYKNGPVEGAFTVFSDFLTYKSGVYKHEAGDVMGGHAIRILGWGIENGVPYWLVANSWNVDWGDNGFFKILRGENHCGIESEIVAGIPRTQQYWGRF
# Chain of Cathepsin L (P07711 114-333): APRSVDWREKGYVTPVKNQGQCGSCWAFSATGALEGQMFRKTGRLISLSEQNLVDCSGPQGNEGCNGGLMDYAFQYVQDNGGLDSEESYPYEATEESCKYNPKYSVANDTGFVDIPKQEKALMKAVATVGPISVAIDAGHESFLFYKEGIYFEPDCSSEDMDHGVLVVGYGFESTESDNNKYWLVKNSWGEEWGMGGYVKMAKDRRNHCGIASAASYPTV
structure (smiles),measurement,setting,value
"COC(=O)[C@@H]1CCCN1c1nsc2nc3ccccc3n12 [1,2,4-thiadiazolo [4,5-a]benzimidazol-3-yl-L-proline methyl ester]",kinact/KI,Papain,356 M⁻¹ s⁻¹
same,inhibition at 0.26 µM,"Papain; steady state, 0.26 μM [inhibitor]",97%
same,kinact/KI,Cathepsin B,626 M⁻¹ s⁻¹
same,inhibition at 10 µM,"Cathepsin B; steady state, 10 μM [inhibitor], % sign not given",88%
same,kinact/KI,Cathepsin L,1050 M⁻¹ s⁻¹
same,inhibition at 10 µM,"Cathepsin L; steady state, 10 μM [inhibitor]",99%
"c1cncc(-c2nsc(-c3cccnc3)n2)c1 [3,5-di(3-pyridyl)-1,2,4-thiadiazole]",reaction with benzyl mercaptan,[1],do not react with benzyl mercaptan
"c1ccc2c(c1)nc1snc(N3CCNCC3)n12 [3-(1-piperazinyl)-1,2,4-thiadiazolo[4,5-a]benzimidazole]",EC50,hog H^+ /K^+ ATPase,1000 nM
"CN1CCN(c2nsc3nc4ccccc4n23)CC1 [3-(4-methyl-1-piperazinyl)-1,2,4-thiadiazolo-[4,5-a]benzimidazole]",kinact/KI,Papain,28 M⁻¹ s⁻¹
same,inhibition at 200 µM,Papain; steady state,99%
same,EC50,hog H^+ /K^+ ATPase,2000 nM
same,kinact/KI,Cathepsin B,19 M⁻¹ s⁻¹
same,inhibition at 200 µM,Cathepsin B; steady state,68%
same,kinact/KI,Cathepsin L,24 M⁻¹ s⁻¹
same,inhibition at 200 µM,Cathepsin L; [3],98%
"c1ccc2c(c1)nc1snc(CN3CCOCC3)n12 [3-(morpholinomethyl)-1,2,4-thiadiazolo[4,5-a]benzimidazole]",kinact/KI,Papain,7 M⁻¹ s⁻¹
same,inhibition at 200 µM,Papain; steady state,92%
same,EC50,hog H^+ /K^+ ATPase,200 nM
same,kinact/KI,Cathepsin B,8 M⁻¹ s⁻¹
same,inhibition at 200 µM,Cathepsin B; steady state,60%
same,kinact/KI,Cathepsin L,7 M⁻¹ s⁻¹
same,inhibition at 200 µM,"Cathepsin L; steady state, 200 μM [inhibitor], % sign not given",80%
"c1ccc2c(c1)nc1snc(OCCN3CCOCC3)n12 [3-[2-(N-morpholino)ethoxy]-1,2,4-thiadiazolo[4,5-a]benzimidazole]",kinact/KI,Papain,5560 M⁻¹ s⁻¹
same,inhibition at 0.66 µM,"Papain; steady state, 0.66 μM [inhibitor]",99.6%
same,kinact/KI,Cathepsin B,107 M⁻¹ s⁻¹
same,inhibition at 50 µM,Cathepsin B; [4],91%
same,kinact/KI,Cathepsin L,356 M⁻¹ s⁻¹
same,inhibition at 25 µM,"Cathepsin L; steady state, 25 μM [inhibitor]",99%
"c1ccc2c(c1)nc1snc(NCCN3CCOCC3)n12 [3-[2-(N-morpholino)ethylamino]l,2,4-thiadiazolo-[4,5-a]benzimidazole]",EC50,hog H^+ /K^+ ATPase,200 nM
"O=C(c1ccccn1)c1nsc2nc3ccccc3n12 [3-[oxo(2-pyridyl)methyl]-1,2,4-thiadiazolo [4,5-a]benzimidazole]",kinact/KI,Papain,2480 M⁻¹ s⁻¹
same,inhibition at 1 µM,Papain; steady state,79%
same,kinact/KI,Cathepsin B,15 M⁻¹ s⁻¹
same,inhibition at 200 µM,Cathepsin B; steady state,58%
same,kinact/KI,Cathepsin L,68 M⁻¹ s⁻¹
same,inhibition at 200 µM,Cathepsin L; [3],99%
"COc1nsc(N)n1 [3-methoxy-5-amino-1,2,4-thiadiazoles, 5-amino-3-methoxy-1,2,4-thiadiazole]",reaction with benzyl mercaptan,[1],reacted with benzyl mercaptan
"Cc1nsc(NCc2ccccc2)n1 [3-methyl-5-benzylamino-1,2,4-thiadiazole]",reaction with benzyl mercaptan,[1],do not react with benzyl mercaptan
"Cc1nsc(N(Cc2ccccc2)Cc2ccccc2)n1 [3-methyl-5-dibenzylamino-1,2,4-thiadiazole]",reaction with benzyl mercaptan,[1],do not react with benzyl mercaptan
COc1nsc(NC(=O)N[C@@H](CC(C)C)C(=O)NCCC(C)C)n1 [Example T11AA],kinact/KI,Papain,3900 M⁻¹ s⁻¹
same,inhibition at 1 µM,Papain; steady state,97%
same,kinact/KI,Cathepsin B,1060 M⁻¹ s⁻¹
same,inhibition at 5 µM,"Cathepsin B; steady state, 5 μM [inhibitor]",56%
same,kinact/KI,Cathepsin L,3480 M⁻¹ s⁻¹
same,inhibition at 5 µM,Cathepsin L; steady state,99%
"COc1ccc2[nH]c([S+]([O-])Cc3ncc(C)c(OC)c3C)nc2c1 (stereo not shown) [Omeprazole, reference compound]",acid stability,[2],complete decomposition in a few minutes
"O=C(O)c1nsc2nc3ccccc3n12 [sodium 3-carboxylato-1,2,4-thiadiazolo[4,5-albenzimidazole]",kinact/KI,Papain,131 M⁻¹ s⁻¹
same,inhibition at 200 µM,Papain; steady state,99.6%
same,kinact/KI,Cathepsin B,34 M⁻¹ s⁻¹
same,inhibition at 200 µM,Cathepsin B; steady state,85%
same,kinact/KI,Cathepsin L,184 M⁻¹ s⁻¹
same,inhibition at 50 µM,Cathepsin L; [4],98%
"CC(C)CCNC(=O)[C@H](CC(C)C)NC(=O)c1nsc2nc3ccccc3n12 [{1,2,4-thiadiazolo[4,5-a]benzimidazol-3-yl}-carbonyl-L-leucyl isoamylamide]",kinact/KI,Papain,500 M⁻¹ s⁻¹
same,inhibition at 5 µM,"Papain; steady state, 5 μM [inhibitor]",95%
same,kinact/KI,Cathepsin L,307 M⁻¹ s⁻¹
same,inhibition at 5 µM,Cathepsin L; steady state,93%
